Reference: US4695573A (Hoechst-Roussel Pharmaceuticals Inc., priority 1985, dated 1987)
Structures can show the parent of a compound that is named as a salt. Where two headings read alike, the source gives them in different places.

Experiments:
acetylcholinesterase = acetylcholinesterase (Homo sapiens, UniProt P22303); assay: Cholinesterase Inhibition Assay (photometric method of Ellman et al.); type: biochemical
[1] = system: cholinergically deficient memory; assay: Dark Avoidance Assay (block of scopolamine-induced memory impairment); type: in vivo, mice; conditions: Mus musculus, read-out: % of Animals Greater than Scopolamine; for responders at 0.16 mg/kg: dose 0.16 mg/kg of body weight; for responders at 5 mg/kg: dose 5.0 mg/kg of body weight; for responders at 2.5 mg/kg: dose 2.5 mg/kg of body weight; for responders at 1.25 mg/kg: dose 1.25 mg/kg of body weight
Method: In this assay mice are tested for their ability to remember an unpleasant stimulus for a period of 24 hours. A mouse is placed in a chamber that contains a dark compartment; a strong incandescent light drives it to the dark compartment, where an electric shock is administered through metal plates on the floor. The animal is removed from the testing apparatus and tested again, 24 hours later, for the ability to remember the electric shock.
If scolopamine, an anticholinergic that is known to cause memory impairment, is administered before an animal's initial exposure to the test chamber, the animal re-enters the dark compartment shortly after being placed in the test chamber 24 hours later.

[2] = mice, dose 0.63 mg/kg of body weight, retest after 24 hours
[3] = photometric method of Ellman, read-out: Cholinesterase Inhibition IC50

acetylcholinesterase, sequence (P22303 32-614): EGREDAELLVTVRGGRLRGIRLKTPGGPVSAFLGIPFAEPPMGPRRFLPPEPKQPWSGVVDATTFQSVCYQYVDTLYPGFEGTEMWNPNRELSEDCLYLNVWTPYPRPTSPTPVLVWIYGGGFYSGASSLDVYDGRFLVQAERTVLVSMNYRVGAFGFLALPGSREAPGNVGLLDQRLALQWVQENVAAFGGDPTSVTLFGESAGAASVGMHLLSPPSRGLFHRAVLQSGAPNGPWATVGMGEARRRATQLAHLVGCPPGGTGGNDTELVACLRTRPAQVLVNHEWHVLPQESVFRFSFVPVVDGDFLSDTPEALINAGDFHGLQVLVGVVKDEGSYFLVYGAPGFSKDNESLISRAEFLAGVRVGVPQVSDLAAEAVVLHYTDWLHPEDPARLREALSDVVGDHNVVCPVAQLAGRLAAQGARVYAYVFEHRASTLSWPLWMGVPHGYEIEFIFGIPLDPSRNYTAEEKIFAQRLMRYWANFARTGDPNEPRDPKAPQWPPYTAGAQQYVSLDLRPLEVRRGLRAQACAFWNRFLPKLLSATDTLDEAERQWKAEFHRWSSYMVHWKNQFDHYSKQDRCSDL

OC1CCCc2nc3ccccc3c(NCc3ccccc3C(F)(F)F)c21 (stereo not shown) [1,2,3,4-Tetrahydro-9-(2-trifluoromethylbenzylamino)acridin-1-ol]
IC50 (acetylcholinesterase): 920 µM | responders at 0.16 mg/kg ([1]; mice, retest after 24 hours): 38%

OC1CCCc2nc3ccccc3c(NCc3ccc(C(F)(F)F)cc3)c21 (stereo not shown) [1,2,3,4-Tetrahydro-9-(4-trifluoromethylbenzylamino)acridin-1-ol]
IC50 (acetylcholinesterase): 550 µM | responders at 0.16 mg/kg ([1]; mice, retest after 24 hours): 22%

O=C1CCCc2nc3ccccc3c(NCCCC(c3ccccc3)c3ccccc3)c21 [3,4-Dihydro-9-(4,4-diphenylbutylamino)acridin-1(2H)-one]
IC50 (acetylcholinesterase): 13 µM | responders at 0.63 mg/kg [1, 2]: 50%

O=C1CCCc2nc3ccccc3c(NCCCC(c3cccc(F)c3)c3cccc(F)c3)c21 [3,4-Dihydro-9-[4,4-bis(3-fluorophenyl)butylamino]acridin-1(2H)-one]
IC50 (acetylcholinesterase): 1.9 µM | responders at 5 mg/kg ([1]; mice, retest after 24 hours): 40%

OC1CCCc2nc3ccccc3c(NCc3ccccc3Cl)c21 (stereo not shown) [9-(2-Chlorobenzylamino)-1,2,3,4-tetrahydroacridin-1-ol]
IC50 (acetylcholinesterase): 130 µM | responders at 0.31 mg/kg ([1]; mice, dose 0.31 mg/kg of body weight, retest after 24 hours): 27%

OC1CCCc2nc3ccccc3c(NCc3ccccc3F)c21 (stereo not shown) [9-(2-Fluorobenzylamino)-1,2,3,4-tetrahydroacridin-1-ol maleate]
IC50 (acetylcholinesterase): 210 µM | responders at 2.5 mg/kg ([1]; mice, retest after 24 hours): 27%

COc1ccccc1CNc1c2c(nc3ccccc13)CCCC2O (stereo not shown) [9-(2-Methoxybenzylamino)-1,2,3,4-tetrahydroacridin-1-ol]
IC50 (acetylcholinesterase): 150 µM | responders at 0.21 mg/kg ([1]; mice, dose 0.21 mg/kg of body weight, retest after 24 hours): 33%

OC1CCCc2nc3ccccc3c(NCc3ccc(F)cc3)c21 (stereo not shown) [9-(4-fluorobenzylamino)-1,2,3,4-tetrahydroacridin-1-ol]
IC50 (acetylcholinesterase): 110 µM | responders at 1.25 mg/kg ([1]; mice, retest after 24 hours): 33%

Nc1c2c(nc3cc(C(F)(F)F)ccc13)CCCC2O (stereo not shown) [9-Amino-1,2,3,4-tetrahydro-6-trifluoromethylacridin-1-ol]
responders at 0.63 mg/kg [1, 2]: 71%

Nc1c2c(nc3ccccc13)CCCC2O (stereo not shown) [9-Amino-1,2,3,4-tetrahydroacridin-1-ol]
responders at 0.63 mg/kg [1, 2]: 33%

Nc1c2c(nc3ccccc13)CCCC2=O [9-Amino-3,4-dihydroacridin-1(2H)--one, 9-Amino-3,4-dihydroacridin-1(2H)-one]
IC50 (acetylcholinesterase; [3]): 250 µM

Nc1c2c(nc3ccccc13)CCC=C2 [9-Amino-3,4-dihydroacridine]
IC50 (acetylcholinesterase): 6.5 µM | responders at 2.5 mg/kg ([1]; mice, retest after 24 hours): 20%

OC1CCCc2nc3ccccc3c(NCc3ccccc3)c21 (stereo not shown) [9-Benzylamino-1,2,3,4-tetrahydroacridin-1-ol]
responders at 1.25 mg/kg ([1]; mice, retest after 24 hours): 27%

O=C1CCCc2nc3cc(F)ccc3c(NCc3ccccc3)c21 [9-Benzylamino-3,4-dihydro-6-fluoroacridin-1(2H)-one, maleate]
responders at 5 mg/kg ([1]; mice, retest after 24 hours): 40%

OC1CCCc2nc3ccccc3c(NCCc3ccccc3)c21 (stereo not shown) [9-Phenethylamino-1,2,3,4-tetrahydroacridin-1-ol]
IC50 (acetylcholinesterase; [3]): 240 µM

OC1CCCc2nc3ccccc3c(NCc3c(F)c(F)c(F)c(F)c3F)c21 (stereo not shown) [9-[(2,3,4,5,6-Pentafluorobenzyl)amino]-1,2,3,4-tetrahydroacridin-1-ol, fumarate]
IC50 (acetylcholinesterase): 350 µM | responders at 5 mg/kg ([1]; mice, retest after 24 hours): 20%

CC[C@@H]1C(=O)OC[C@@H]1Cc1cncn1C [Pilocarpine, reference compound]
responders at 5 mg/kg ([1]; mice, retest after 24 hours): 13%

Nc1c2c(nc3ccccc13)CCCC2 [Tacrine, 9-Amino-1,2,3,4-tetrahydroacridine, reference compound]
responders at 0.63 mg/kg ([1]; 24 h): 13%
